# Results as given in patent US8703790B2, “Bis [O-(14-benzoylaconine-8-yl)] esters” (priority 2008, dated 2014).
# Columns and labels:
# [1] = biological target: T1, purified human recombinant Top 1 (Homo sapiens, UniProt P11387); experiment: Top1-catalysed cleavage assay; assay type: biochemical; conditions: 1, 10, 100 and 1000 μM
# T1 sequence (P11387 1-765): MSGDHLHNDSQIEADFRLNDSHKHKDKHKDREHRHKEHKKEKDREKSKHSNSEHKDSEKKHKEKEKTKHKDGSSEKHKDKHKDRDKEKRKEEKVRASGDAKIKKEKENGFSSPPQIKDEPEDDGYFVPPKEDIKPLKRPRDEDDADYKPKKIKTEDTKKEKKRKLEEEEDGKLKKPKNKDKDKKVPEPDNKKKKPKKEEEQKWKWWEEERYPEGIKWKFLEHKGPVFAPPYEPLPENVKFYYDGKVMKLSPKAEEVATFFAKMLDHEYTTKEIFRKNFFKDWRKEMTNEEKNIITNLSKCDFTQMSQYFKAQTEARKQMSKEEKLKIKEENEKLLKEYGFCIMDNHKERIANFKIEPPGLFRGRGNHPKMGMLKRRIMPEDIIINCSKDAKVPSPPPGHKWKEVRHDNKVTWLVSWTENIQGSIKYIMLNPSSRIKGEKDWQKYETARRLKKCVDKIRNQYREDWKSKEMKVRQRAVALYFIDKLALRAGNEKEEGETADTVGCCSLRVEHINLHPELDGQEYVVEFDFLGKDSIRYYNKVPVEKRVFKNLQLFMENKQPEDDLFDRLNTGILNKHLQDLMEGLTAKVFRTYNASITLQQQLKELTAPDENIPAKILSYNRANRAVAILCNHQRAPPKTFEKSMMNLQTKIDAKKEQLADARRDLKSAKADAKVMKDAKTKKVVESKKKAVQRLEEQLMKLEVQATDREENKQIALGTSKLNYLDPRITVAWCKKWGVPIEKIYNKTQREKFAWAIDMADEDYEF
# Description: The influence of SDD has been studied at various concentrations on Top 1 cleavage activity in comparison with Camptothecin.
# The method consists in an incubation of 3′-labeled oligonucleotides with enzyme Top1, or Top 1+CPT or Top 1-SDD.
# 3′-end labelling of the scissile strand was performed as described previously in the publication: Conversion of topoisomerase I cleavage complexes on the leading strand of ribosomal DNA into 5′-phosphorylated DNA double-strand breaks by replication runoff. Pommier, Y.; Jenkins, J.; Kohlhagen, G.; and Leteurtre, F.; Mutat. Res. (1995), 337, 135-145.
# Thus, 10 pmol of […] was incubated in labelling buffer (100 mM potassium cacodylate, pH 7.2, 2 mM CaCl2, 200 μM DTT) for 1 h at 37° C.
# The reaction mixture was passed through a G-25 Sephadex spin column by centrifugation at 1000 g for 5 min to remove the excess of unincorporated nucleotide.
# The 3′-labeled oligonucleotide was mixed with the same amount of unlabeled complementary strand in annealing buffer (i.e. 10 mM Tris-HCl, pH 7.8, […]) and annealed by heating the reaction mixture for 5 min at 95° C. followed by slow cool down at room temperature. […]
# Imaging and quantification of the cleavage products were performed using a Typhoon Phosphorimager (Amersham Biosciences) as described in Inhibition of Topoisomerase I cleavage activity by thiol-reactive compounds. […]
# [2] = tested on: DNA topoisomerase II (Topo II); experiment: Topo II catalytic activity, decatenation of kDNA; assay type: biochemical; conditions: 1, 10, 100 and 1000 μM; dose independent
# Description: Test for revelation of the possible inhibitory effect of SDD on Topo II catalytic activity has been undertaken by decatenation of a catenated DNA substrate originating from Trypanosoma kinetoplasts (kDNA, TopoGen) into relaxed DNA forms.
# The following standard reaction mixture contained 40 mM Tris/HCl pH 7.4, 10 mM MgCl2, 0.5 mM dithiothreitol, 1 mM ATP and […] kDNA has been carried out.
# The reaction was initiated by the addition of 0.35 M NaCl nuclear extract and stopped after 20 min incubation at 37° C. by adding a denaturating solution containing 30% glycerol, 1% SDS, 0.5 mg/ml bromphenol blue.
# The samples were then electrophoresed on a 1% agarose gel in 40 mM Tris/acetic acid, pH 8.0 containing 2 mM EDTA and 0.1 μg/ml ethidium bromide, for 45 min at 80V.
# A positive control for decatenation was a decatenated kDNA marker obtained from TopoGen, containing a mixture of two species of relaxed
# DNA, open circular DNA and covalently closed circular DNA.
# DNA was visualized under UV light and the various DNA forms were quantified by densitometric scanning using the device described above.
# Etoposide was used as positive control, as it is described in the following publication: Differential stabilisation of topoisomerase-II-DNA cleavable complexes doxorubicine and etoposide in doxorubicin-resistant rat glioblastoma cells. […]
# female Swiss mouse = experiment: Acute systemic toxicity, preliminary test, intravenous; assay type: in vivo; conditions: for death of the animal, time after the test item administration: 1 female Swiss mouse
# Description: The study has been performed to assess the acute systemic toxicity of SDD in the mouse preliminary test.
# The SDD was administered, by intravenous route: • in a first step to 1 female Swiss mouse at the single dose of 95 mg/kg b.w., • in a second step to 1 female Swiss mouse at the single dose of 60 mg/kg b.w., • in a third step to 1 female Swiss mouse at the single dose of 55 mg/kg b.w., and • in a fourth step to a group of 2 female Swiss mice at the single dose of 50 mg/kg b.w.
# [3] = 50 mg/kg b.w. iv, 1 hour after administration
smiles,measurement,setting,value
"CCN1C[C@]2(COC)[C@H](O)C[C@H](OC)[C@]34C1[C@H]([C@H](OC)[C@H]23)[C@]1(OC(=O)CCCCCCC(=O)O[C@]23[C@H]5[C@@H](OC(=O)c6ccccc6)[C@](O)(C[C@H]5[C@@]56C7[C@@H]2[C@H](OC)[C@@H]5[C@](COC)(CN7CC)[C@H](O)C[C@@H]6OC)[C@@H](OC)[C@@H]3O)[C@H]2[C@@H](OC(=O)c3ccccc3)[C@](O)(C[C@H]24)[C@@H](OC)[C@@H]1O [SDD, bis[O-(14-benzoylaconine-8-yl)]-suberate]",Top 1 inhibitory activity compared with camptothecin,[1],no Top 1 inhibitory activity
same,inhibition of Topo II activity compared to etoposide,[2],relatively moderate inhibition
same,decrease of the righting reflex (animals affected),female Swiss mouse; [3],1/2
same,decrease of the spontaneous activity (animals affected),female Swiss mouse; [3],2/2
same,local finding at the tails,"female Swiss mouse; 50 mg/kg b.w. iv, first day to fourteenth day",oedema at the level of the tails
same,mortality,"female Swiss mouse; 50 mg/kg b.w. single dose iv, 2 female Swiss mice",No mortality
same,macroscopical examination,"female Swiss mouse; 50 mg/kg iv, end of the study",did not reveal any treatment-related changes
same,"death of the animal, time after the test item administration",female Swiss mouse; 55 mg/kg b.w. single dose iv,24 h
same,"death of the animal, time after the test item administration",female Swiss mouse; 60 mg/kg b.w. single dose iv,3 h
same,"death of the animal, time after the test item administration",female Swiss mouse; 95 mg/kg b.w. single dose iv,immediately
same,body weight evolution,"female Swiss mouse; preliminary test, throughout the study",remained normal
